Measurements as given in patent US4515941A, “23-Demycinosyldesmycosin derivatives” (Toyo Jozo Kabushiki Kaisha, priority 1982, dated 1985).
Converted amounts (≈) assume the structure as drawn. Where two headings read alike, the source gives them in different places.

Columns and labels:
Format in all cases: cell-based
[1] = system: Staphylococcus aureus ATCC 6538P; assay: MIC, Staphylococcus aureus ATCC 6538P; conditions: ATCC6538P, read-out: MIC
[2] = system: Staphylococcus aureus MS353; assay: MIC, Staphylococcus aureus MS353; conditions: Staphylococcus aureus MS353; read-out: MIC
[3] = system: Staphylococcus aureus MS353 C36; assay: MIC, Staphylococcus aureus MS353 C36; conditions: MS353C36
[4] = system: Staphylococcus aureus MS353 A0; assay: MIC, Staphylococcus aureus MS353 A0 (macrolide resistant); conditions: MS353A0, macrolide resistant bacteria A group
From the text: (§1) *macrolide resistant bacteria A group (clinical isolates of erythromycin,
(§2) oleandomycin and 16membered macrolide antibiotic resistant strains.)

[5] = system: Staphylococcus aureus 0119; assay: MIC, Staphylococcus aureus 0119 (macrolide resistant); conditions: macrolide resistant bacteria A group
From the text: as §1, §2

[6] = system: Staphylococcus aureus 0127; assay: MIC, Staphylococcus aureus 0127 (macrolide resistant); conditions: Staphylococcus aureus 0127; macrolide resistant bacteria A group; read-out: MIC
From the text: as §1, §2

[7] = system: Staphylococcus epidermis sp-al-1; assay: MIC, Staphylococcus epidermis sp-al-1; conditions: SPAL1; Staphylococcus epidermis sp-al-1; read-out: MIC
[8] = system: Streptococcus pyogenes N.Y.5; assay: MIC, Streptococcus pyogenes N.Y.5; conditions: read-out: MIC
[9] = system: Streptococcus pyogenes 1022; assay: MIC, Streptococcus pyogenes 1022 (macrolide resistant); conditions: macrolide resistant bacteria A group
From the text: as §1, §2

[10] = system: Streptococcus faecalis 1501; assay: MIC, Streptococcus faecalis 1501; conditions: Enterococcus faecalis; Streptococcus faecalis 1501; read-out: MIC
[11] = system: Streptococcus agalactiae 1020; assay: MIC, Streptococcus agalactiae 1020; conditions: Streptococcus agalactiae 1020; read-out: MIC
Sarcina lutea ATCC 9341 = assay: MIC, Sarcina lutea ATCC 9341; conditions: Micrococcus luteus, ATCC9341
[12] = system: Micrococcus flavus ATCC 10240; assay: MIC, Micrococcus flavus ATCC 10240; conditions: ATCC10240; Micrococcus flavus ATCC 10240; read-out: MIC
[13] = system: Corynebacterium diptheriae P.Y.8; assay: MIC, Corynebacterium diptheriae P.Y.8; conditions: Corynebacterium diptheriae P.Y.8; read-out: MIC
[14] = system: Bacillus subtilis ATC 6633; assay: MIC, Bacillus subtilis ATC 6633; conditions: ATC6633; Bacillus subtilis ATC 6633; read-out: MIC
[15] = system: Escherichia coli NIHJ-JC2; assay: MIC, Escherichia coli NIHJ-JC2; conditions: NIHJJC2
Escherichia coli B = assay: MIC, Escherichia coli B
[16] = system: Klebsiella pneumoniae ATCC 10031; assay: MIC, Klebsiella pneumoniae ATCC 10031; conditions: ATCC10031; Klebsiella pneumoniae ATCC 10031; read-out: MIC
Salmonella typhosa H901 = assay: MIC, Salmonella typhosa H901; conditions: Salmonella enterica, TYPHOSA
[17] = system: Salmonella enteritidis Gaertner; assay: MIC, Salmonella enteritidis Gaertner; conditions: Salmonella enterica; Salmonella enteritidis Gaertner; read-out: MIC
[18] = system: Shigella flexineri type 3a; assay: MIC, Shigella flexineri type 3a; conditions: TYPE3A
Shigella sonnei E33 = assay: MIC, Shigella sonnei E33
Proteus vulgaris OX19 = assay: MIC, Proteus vulgaris OX19; conditions: Proteus vulgaris OX19; read-out: MIC
Serratia marcescens = assay: MIC, Serratia marcescens; conditions: read-out: MIC
[19] = system: Pseudomonas aeruginosa IAM 1095; assay: MIC, Pseudomonas aeruginosa IAM 1095; conditions: IAM1095; Pseudomonas aeruginosa IAM 1095; read-out: MIC
[20] = Streptococcus pyogenes 1022, read-out: MIC

Structure (SMILES) | MIC [1] [µg/mL] | MIC [2] [µg/mL] | MIC [3] [µg/mL] | MIC [4] [µg/mL] | MIC [5] [µg/mL] | MIC [6] [µg/mL] | MIC [7] [µg/mL] | MIC [8] [µg/mL] | MIC [10] [µg/mL] | MIC [11] [µg/mL] | MIC (Sarcina lutea ATCC 9341) [µg/mL] | MIC [12] [µg/mL] | MIC [13] [µg/mL] | MIC [14] [µg/mL] | MIC [15] [µg/mL] | MIC (Escherichia coli B) [µg/mL] | MIC [16] [µg/mL] | MIC (Salmonella typhosa H901) [µg/mL] | MIC [17] [µg/mL] | MIC [18] [µg/mL] | other results
CCC1OC(=O)CC(O)C(C)C(OC2OC(C)C(O)C(N(C)C)C2O)C(CC=O)CC(C)C(=O)C=CC(C)=CC1COc1ccc(OC)cc1 (stereo not shown) | 0.2 (≈ 0.284 µM) | 0.2 (≈ 0.284 µM) | 0.1 (≈ 0.142 µM) | 100 (≈ 142 µM) | > 100 | > 100 | ≤ 0.05 | ≤ 0.05 | 0.2 (≈ 0.284 µM) | ≤ 0.05 | ≤ 0.05 | ≤ 0.05 | ≤ 0.05 | 0.2 (≈ 0.284 µM) | > 100 | 100 (≈ 142 µM) | 3.1 (≈ 4.4 µM) | > 100 | > 100 | 50 (≈ 71 µM) | MIC [9, 20]: 100 µg/mL (≈ 142 µM); MIC (Shigella sonnei E33): > 100 µg/mL; MIC (Proteus vulgaris OX19): 50 µg/mL (≈ 71 µM); MIC (Serratia marcescens): > 100 µg/mL; MIC [19]: > 100 µg/mL
CCc1ccc(OCC2C=C(C)C=CC(=O)C(C)CC(CC=O)C(OC3OC(C)C(O)C(N(C)C)C3O)C(C)C(O)CC(=O)OC2CC)cc1 (stereo not shown) | 0.4 (≈ 0.57 µM) | 0.4 (≈ 0.57 µM) | 0.4 (≈ 0.57 µM) | 25 (≈ 35.6 µM) | 25 (≈ 35.6 µM) | 25 (≈ 35.6 µM) | 0.2 (≈ 0.285 µM) | 0.1 (≈ 0.142 µM) | 0.4 (≈ 0.57 µM) | 0.1 (≈ 0.142 µM) | ≤ 0.05 | ≤ 0.05 | ≤ 0.05 | 0.4 (≈ 0.57 µM) | > 100 | > 100 | 6.3 (≈ 8.98 µM) | > 100 | > 100 | > 100 | MIC [9, 20]: 12.5 µg/mL (≈ 17.8 µM); MIC (Shigella sonnei E33): > 100 µg/mL; MIC (Proteus vulgaris OX19): 100 µg/mL (≈ 142 µM); MIC (Serratia marcescens): > 100 µg/mL; MIC [19]: > 100 µg/mL
CCC1OC(=O)CC(O)C(C)C(OC2OC(C)C(O)C(N(C)C)C2O)C(CC=O)CC(C)C(=O)C=CC(C)=CC1COc1ccc(Cl)cc1 (stereo not shown) | 0.1 (≈ 0.141 µM) | 0.1 (≈ 0.141 µM) | ≤ 0.05 | 25 (≈ 35.3 µM) | 50 (≈ 70.6 µM) | 25 (≈ 35.3 µM) | ≤ 0.05 | ≤ 0.05 | 0.1 (≈ 0.141 µM) | ≤ 0.05 | ≤ 0.05 | ≤ 0.05 | ≤ 0.05 | 0.1 (≈ 0.141 µM) | 50 (≈ 70.6 µM) | 50 (≈ 70.6 µM) | 3.1 (≈ 4.38 µM) | > 100 | > 100 | 6.3 (≈ 8.89 µM) | MIC [9, 20]: 12.5 µg/mL (≈ 17.6 µM); MIC (Shigella sonnei E33): 50 µg/mL (≈ 70.6 µM); MIC (Proteus vulgaris OX19): 12.5 µg/mL (≈ 17.6 µM); MIC (Serratia marcescens): 50 µg/mL (≈ 70.6 µM); MIC [19]: > 100 µg/mL
CCC1OC(=O)CC(O)C(C)C(OC2OC(C)C(O)C(N(C)C)C2O)C(CC=O)CC(C)C(=O)C=CC(C)=CC1COc1ccccc1 (stereo not shown) | ≤ 0.05 | ≤ 0.05 | ≤ 0.05 | 50 (≈ 74.2 µM) | 100 (≈ 148 µM) | 100 (≈ 148 µM) | ≤ 0.05 | ≤ 0.05 | ≤ 0.05 | ≤ 0.05 | ≤ 0.05 | ≤ 0.05 | ≤ 0.05 | ≤ 0.05 | 50 (≈ 74.2 µM) | 25 (≈ 37.1 µM) | 1.6 (≈ 2.37 µM) | 100 (≈ 148 µM) | 100 (≈ 148 µM) | 6.3 (≈ 9.35 µM) | MIC [9, 20]: 50 µg/mL (≈ 74.2 µM); MIC (Shigella sonnei E33): 50 µg/mL (≈ 74.2 µM); MIC (Proteus vulgaris OX19): 12.5 µg/mL (≈ 18.6 µM); MIC (Serratia marcescens): 25 µg/mL (≈ 37.1 µM); MIC [19]: 50 µg/mL (≈ 74.2 µM)
CCC1OC(=O)CC(O)C(C)C(OC2OC(C)C(O)C(N(C)C)C2O)C(CC=O)CC(C)C(=O)C=CC(C)=CC1COc1cccc([N+](=O)[O-])c1 (stereo not shown) | 0.1 (≈ 0.139 µM) | 0.1 (≈ 0.139 µM) | 0.1 (≈ 0.139 µM) | 100 (≈ 139 µM) | > 100 | 100 (≈ 139 µM) | ≤ 0.05 | ≤ 0.05 | 0.1 (≈ 0.139 µM) | ≤ 0.05 | ≤ 0.05 | ≤ 0.05 | ≤ 0.05 | ≤ 0.05 | 100 (≈ 139 µM) | 50 (≈ 69.6 µM) | 1.6 (≈ 2.23 µM) | 100 (≈ 139 µM) | > 100 | 12.5 (≈ 17.4 µM) | MIC [9, 20]: 50 µg/mL (≈ 69.6 µM); MIC (Shigella sonnei E33): 100 µg/mL (≈ 139 µM); MIC (Proteus vulgaris OX19): 25 µg/mL (≈ 34.8 µM); MIC (Serratia marcescens): 50 µg/mL (≈ 69.6 µM); MIC [19]: 50 µg/mL (≈ 69.6 µM)
CCC1OC(=O)CC(O)C(C)C(OC2OC(C)C(O)C(N(C)C)C2O)C(CC=O)CC(C)C(=O)C=CC(C)=CC1COc1ccc(Br)cc1 (stereo not shown) | 0.1 (≈ 0.133 µM) | 0.2 (≈ 0.266 µM) | 0.2 (≈ 0.266 µM) | 25 (≈ 33.2 µM) | 25 (≈ 33.2 µM) | 25 (≈ 33.2 µM) | 0.1 (≈ 0.133 µM) | ≤ 0.05 | 0.2 (≈ 0.266 µM) | ≤ 0.05 | ≤ 0.05 | ≤ 0.05 | ≤ 0.05 | 0.2 (≈ 0.266 µM) | 100 (≈ 133 µM) | 25 (≈ 33.2 µM) | 3.1 (≈ 4.12 µM) | > 100 | > 100 | 12.5 (≈ 16.6 µM) | MIC ([9]; Streptococcus pyogenes, 1022, Streptococcus pyogenes 1022): 12.5 µg/mL (≈ 16.6 µM); MIC (Shigella sonnei E33): 100 µg/mL (≈ 133 µM); MIC (Proteus vulgaris OX19): 25 µg/mL (≈ 33.2 µM); MIC (Serratia marcescens): 50 µg/mL (≈ 66.4 µM); MIC [19]: > 100 µg/mL
CCC1OC(=O)CC(O)C(C)C(OC2OC(C)C(O)C(N(C)C)C2O)C(CC=O)CC(C)C(=O)C=CC(C)=CC1COc1ccc(C)cc1 (stereo not shown) | 0.2 (≈ 0.291 µM) | 0.2 (≈ 0.291 µM) | 0.2 (≈ 0.291 µM) | 50 (≈ 72.7 µM) | 50 (≈ 72.7 µM) | 50 (≈ 72.7 µM) | ≤ 0.05 | ≤ 0.05 | 0.1 (≈ 0.145 µM) | ≤ 0.05 | ≤ 0.05 | ≤ 0.05 | ≤ 0.05 | 0.1 (≈ 0.145 µM) | 100 (≈ 145 µM) | 50 (≈ 72.7 µM) | 6.3 (≈ 9.16 µM) | > 100 | > 100 | 50 (≈ 72.7 µM) | MIC [9, 20]: 25 µg/mL (≈ 36.3 µM); MIC (Shigella sonnei E33): > 100 µg/mL; MIC (Proteus vulgaris OX19): 25 µg/mL (≈ 36.3 µM); MIC (Serratia marcescens): 100 µg/mL (≈ 145 µM); MIC [19]: > 100 µg/mL
